The subject of one assay is A2058. As to the kind of experiment: MTT proliferation assay, A2058. The class given is cell-based. Conditions: Homo sapiens, A2058, 120 h, Table 2, Melanoma, A2058, 120 hrs of exposure. The method, then:
(§1) Proliferation Assays. IC50 values were determined for each cell line. Cells were seeded in 96-well plates at an appropriate cell density as determined from growth kinetics analysis and cultured for 5 days in the absence and presence of the test compounds. Cell proliferation was assessed after the addition of 20 μl of 3-4,5 dimethylthiazol-2,5-diphenyl tetrazolium bromide (MTT, 5 mg/ml in PBS, Sigma) for 5 hrs at 37° C. according to manufacturer's instructions. IC50 values were calculated from semi-log plots of % of control proliferation on the y-axis against log dose on the x-axis.
(§2) Anti-proliferative Activity of Isoflavonoid Derivatives. IC50 values were determined for each cell line after 120 h of exposure.
Background: Tetrazolium dyes change colour on reduction, which living cells bring about.

Assay [1] concerns A2780 ovarian cancer cells. As to the kind of experiment: Combination with carboplatin, proliferation of A2780 cells. It is filed as cell-based. Conditions: for enhancement of the anti-cancer effect of carboplatin: A2780, depending on exposure regimen (24 hr concurrent or sequential). How it is done:
In vitro toxicity in normal and cancer cells. Cells were seeded in 96-well plates at an appropriate cell density as determined from growth kinetics analysis. Depending on the plating efficiency and lag phase of individual cell lines, cells were allowed to plate down prior to drug exposure. Intra-experimental single agent controls were included to ensure IC50 values obtained for each cell line matched previous IC50 determinations. Four analogue concentrations were employed in each analysis. Analogue concentrations used in each assay were chosen based on IC50 values, which formed the top concentration of analogue used. Subsequent concentrations were chosen based on simple ½ or 1/10 dilutions of the top analogue concentration employed (i.e. 2, 1, 0.5, 0.25 μM). Nine 1/10 serial dilutions of chemotherapeutic were employed with the top chemotherapeutic concentration being 50 μM.
For combined analysis, analogue concentrations were held constant through 1/10 serial dilutions of chemotherapeutic in growth medium (top chemotherapeutic concentration employed was 50 μM). Combined cultures were cultured for 5 days.
The sequence of administration effect of each agent on chemotherapeutic IC50 values was assessed by exposing plated cells to a single agent in sequence for 24 hr. To assess the isoflavonoid derivative→chemotherapeutic sequence, plated cells were first exposed to the appropriate analogue concentrations and incubated at 37° C. for 24 hr. Cells were washed with growth medium and then exposed to the appropriate chemotherapeutic concentrations and incubated for 24 hr. Cells were then washed and incubated for a further 3 days. To assess the chemotherapeutic→isoflavonoid derivative sequence, the procedure was reversed.
Cell proliferation was assessed after the addition of 20 μl of 3-4,5 dimethylthiazol-2,5-diphenyl tetrazolium bromide (MTT, 2.5 mg/ml in PBS, Sigma) for 3-4 hrs at 37° C. according to manufacturer's instructions. IC50 values were calculated from semi-log plots of % of control proliferation on the y-axis against log dose on the x-axis.
3-D model analysis of the cytotoxic interaction between drug A and drug B enables the representation of predicted inhibitory effect of two drugs in combination in 3 dimensions to reveal actual regions of synergy or antagonism. The 3D synergy plots are based on a theory of “Theoretical Additivity” (TA or […]) as outlined by Kanzawa et al. Theoretical Additivity was calculated from the cytotoxicities of drug A and drug B as monotherapies using the following formula which assumes the drugs are mutually exclusive inhibitors: […]
The TA is calculated for each combination of drug concentrations and subtracted from the observed experimental effect for each combination to give a measurement of synergistic or enhanced action.
Combination index (CI) analysis, which employs the median-effect principle correlating drug dose to cytotoxicity, was also employed to assess synergy. The median-effect equation is utilized to calculate the dose of a drug that inhibits “x” percent of cells (Chou and Talalay, 1984). D=Dm[fa/(1−fa)]^1/m
In vitro Assessment of Combination of Optically Active Compound 31 and Carboplatin. Combination studies employed both 24 hr concurrent exposure, and 24 hr sequential exposure (racemic compound 32→Carboplatin) regimens. In both studies, four analogue concentrations (0.25, 0.5, 1 and 5 μM) were held constant against titrated carboplatin. When 1 and 5 μM of compound 32 was assessed in combination with the lowest concentration of carboplatin employed in this study (0.4 μM), no IC50 for carboplatin was achieved due the high levels of cell kill observed (30-40% of control).

In a further assay the test system is MDA-MB-468. As to the kind of experiment: MTT proliferation assay, MDA-MB-468. To be noted: Table 2, Breast, MDA-MB-468, 120 hrs of exposure. It is filed as cell-based, human. The method, then:
The human gastric cancer cell line AGS (CRL-1739) was cultured in Hams F-12K (Kaighans modification) medium containing 2 mM L-glutamine, 2.5 g/L sodium bicarbonate and 2 mM sodium pyruvate. The human breast adenocarcinoma line MDA-MB-468 (HTB-132) was cultured in DMEM:F12 (1:1) medium containing 2.5 mM L-glutamine, 2.4 g/L sodium bicarbonate, supplemented with an additional 2 mM L-glutamine.
as §1, §2

Another assay concerns A2780. As to the kind of experiment: MTT proliferation assay, A2780. The class given is cell-based. Conditions: Table 2, Ovarian, A2780, 120 hrs of exposure. How it is done: as §1, §2
For a further assay, the system named is SKBR-3. The assay can be described thus: MTT proliferation assay, SKBR-3. It is filed as cell-based, human. To be noted: Table 2, Breast, SKBR-3, 120 hrs of exposure. The method, then:
The human colorectal adenocarcinoma line HCT-116 (CCL-247) and the human breast adenocarcinoma line SK-BR-3 (HTB-30) were cultured in McCoy's 5a Medium (Invitrogen) containing 1.5 mM L-glutamine and 2.2 g/L sodium bicarbonate. The human colorectal adenocarcinoma line SW620 (CCL-227) was cultured in Leibovitz's L-15 Medium (Invitrogen) containing 2.05 mM L-glutamine.
as §1, §2

In another assay the test system is MM2200. As to the kind of experiment: MTT proliferation assay, MM2200. It is filed as cell-based. To be noted: Table 2, Melanoma, MM2200, 120 hrs of exposure. How it is done: as §1, §2
Activity data is provided is Table 2.

Another assay relates to CP70. The assay can be described thus: MTT proliferation assay, CP70. It is filed as cell-based. To be noted: Table 2, Ovarian, CP70, 120 hrs of exposure. The method, then: as §1, §2
The next assay has as its system PC3. The assay can be described thus: MTT proliferation assay, PC3. It is filed as cell-based. Conditions: Table 2, Prostate, PC3, 120 hrs of exposure. How it is done:
as §1, §2

A value given as a limit tells only on which side of the number the result lay.

The IC50 is the point on the concentration scale where inhibition reaches its midpoint. Low values mean greater potency, high ones weaker potency. For the molecule `Oc1ccc([C@H]2c3ccc(O)cc3OC[C@H]2c2ccc(O)cc2)cc1` (racemic) [Compound 32], the 50% inhibitory concentration (IC50) lay within 150 to 500 nM in the assay on A2058; 510 to 1500 nM in the assay on MDA-MB-468; 510 to 1500 nM in the assay with A2780; 510 to 1500 nM in the assay on SKBR-3; 510 to 1500 nM in the assay on MM2200; 510 to 1500 nM in the assay on CP70. In the assay with PC3, this molecule gave an IC50 of 510 to 1500 nM. Moreover, the “enhancement of the anti-cancer effect of carboplatin” value is on record as 1.5-2 fold in assay [1] (0.25 μM of compound) and 7-11 fold in assay [1] (0.5 μM of compound). In addition, in assay [1] (1 and 5 μM of compound plus 0.4 μM carboplatin, A2780), the “cell kill level observed (no IC50 for carboplatin achieved)” value is on record as 30-40 % of control. For the same molecule, the “compound concentration giving maximal activity enhancement with carboplatin” value in assay [1] (3D method of Kanzawa, 12.5 μM carboplatin, A2780) was 0.5 µM.

As for `Oc1ccc([C@@H]2c3ccc(O)cc3OC[C@@H]2c2ccc(O)cc2)cc1` [Compound 33], in assay [1] (A2780 cell line, 31 compared with compound 32), the “activity enhancement in combination with carboplatin” value is reported as “did not impart any activity enhancement or antagonistic effect”. In addition, the IC50 with A2780 (Homo sapiens, A2780, 120 h) was at least 10000 nM; in the assay with SKBR-3 (Homo sapiens, SK-BR-3, 120 h), at least 10000 nM; with MM2200, at least 10000 nM; in the assay on CP70 (120 h), at least 10000 nM.
